{
  "source": "paper PMC8102418",
  "about": "(iScience, 2021)",
  "key": {"SRPK2": {"tested_on": "SRPK2", "conditions": "ref Batson et al., 2017; cited from earlier work"}, "CLK1": {"tested_on": "CLK1", "conditions": "ref Batson et al., 2017; cited from earlier work"}, "[1]": {"tested_on": "interaction between SRPK1 and SRSF1", "assay": "In vitro GST pull-down of GST-SRSF1 with SRPK1ΔNS3", "assay_type": "binding", "conditions": "500 nM GST-SRSF1, 500 nM SRPK1, 4°C 3 h, SDS-PAGE, Coomassie Blue"}, "SRPK1": {"molecular_target": "SRPK1 (Homo sapiens, UniProt Q96SB4)", "assay": "In vitro radioactive kinase assay, SRSF1 phosphorylation by SRPK1", "assay_type": "biochemical", "conditions": "50 μM [32P]ATP, different inhibitor concentrations"}, "SRPK1 (SRPK1ΔNS3)": {"molecular_target": "SRPK1 (SRPK1ΔNS3) (Homo sapiens, UniProt Q96SB4)", "assay": "Isothermal titration calorimetry", "assay_type": "binding", "conditions": "SD"}},
  "note": "No end group written: not given here.",
  "data": [
    {"molecule": "O=C(Nc1cc(C(F)(F)F)ccc1N1CCN(Cc2ccccn2)CC1)c1ccc(-c2ccncc2)o1", "note": "[SPHINX31]", "values": [
      {"measurement": "affinity for SRPK2 lower than that of SRPK1", "setting": "SRPK2", "value": 50, "unit": "fold"},
      {"measurement": "affinity for CLK1 lower than that of SRPK1", "setting": "CLK1", "value": 50, "unit": "fold"}
    ]},
    {"molecule": "GRKKRRQRRRPQSWQDLKDH [control peptide]", "values": [
      {"measurement": "inhibition of the binding of GST-SRSF1 and SRPK1ΔNS3 (GST pull-down)", "setting": "[1]", "value": "did not inhibit"},
      {"measurement": "inhibition of SRSF1 phosphorylation by SRPK1 (in words)", "setting": "SRPK1", "value": "did not inhibit"}
    ]},
    {"molecule": "RERARTR [7-mer, R-E-R-A-R-T-R]", "values": [
      {"measurement": "Kd", "setting": "SRPK1 (SRPK1ΔNS3)", "value": "112 ± 9.9", "unit": "µM"}
    ]}
  ]
}
